In assay [1] the target is T1, Serine/threonine-protein kinase haspin (Homo sapiens, UniProt Q8TF76).
T1 sequence (Q8TF76 whole entry): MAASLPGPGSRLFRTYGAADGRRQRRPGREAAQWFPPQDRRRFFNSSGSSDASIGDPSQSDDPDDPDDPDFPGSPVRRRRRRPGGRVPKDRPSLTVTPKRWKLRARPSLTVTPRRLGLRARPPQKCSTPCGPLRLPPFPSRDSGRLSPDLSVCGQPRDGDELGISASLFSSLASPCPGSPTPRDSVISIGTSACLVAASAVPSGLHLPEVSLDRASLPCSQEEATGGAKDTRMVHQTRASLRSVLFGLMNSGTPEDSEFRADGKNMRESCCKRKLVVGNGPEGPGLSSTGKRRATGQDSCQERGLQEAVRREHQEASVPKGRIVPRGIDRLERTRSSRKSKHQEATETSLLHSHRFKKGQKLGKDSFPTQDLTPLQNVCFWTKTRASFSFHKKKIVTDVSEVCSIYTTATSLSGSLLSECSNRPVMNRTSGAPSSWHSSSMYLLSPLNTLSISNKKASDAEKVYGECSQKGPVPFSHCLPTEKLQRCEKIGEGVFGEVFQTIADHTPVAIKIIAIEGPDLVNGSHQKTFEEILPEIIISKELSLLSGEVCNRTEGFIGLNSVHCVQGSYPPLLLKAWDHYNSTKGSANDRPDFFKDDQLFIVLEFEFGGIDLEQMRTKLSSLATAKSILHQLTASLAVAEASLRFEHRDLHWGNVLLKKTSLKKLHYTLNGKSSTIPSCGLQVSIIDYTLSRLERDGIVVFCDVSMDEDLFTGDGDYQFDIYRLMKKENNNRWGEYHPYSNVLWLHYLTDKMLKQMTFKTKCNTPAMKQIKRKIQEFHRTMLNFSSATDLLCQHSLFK
The experiment in a line: Inhibition of recombinant human haspin kinase domain expressed in bacteria using histone H3 (1 to 21 residues) peptide as substrate in presence of [gamma-33P]ATP.

The next assay deals with HCC 2998. Description: Cytotoxicity against human HCC2998 cells assessed as cell growth at 10 uM after 48 hrs by SRB assay relative to control. In kind it is functional. Particulars: HCC 2998, 48 h, read-out: Activity.
Assay [2] is described as follows: Inhibition of domestic porcine brain full length […] using RRKHAAIGSpAYSITA as substrate in presence of [gamma-33P]ATP. The arrangement: species or system Sus scrofa domesticus.
The next assay has as its system SK-MEL-28. The experiment in a line: Cytotoxicity against human SK-MEL-28 cells assessed as cell growth at 10 uM after 48 hrs by SRB assay relative to control. In kind it is functional. The conditions noted are these: SK-MEL-28, 48 h, read-out: Activity.
For assay [3], the target named is Dual specificity tyrosine-phosphorylation-regulated kinase 1A (Rattus norvegicus) (UniProt Q63470). Description: Inhibition of recombinant rat DYRK1A kinase domain expressed in bacteria assessed as residual activity at 10 uM using KKISGRLSPIMTEQ as substrate in presence of [gamma-33P]ATP.
The subject of the next assay is RPMI-8226. The experiment in a line: Cytotoxicity against human RPMI8226 cells assessed as cell growth at 10 uM after 48 hrs by SRB assay relative to control. The conditions noted are these: RPMI-8226, 48 h, read-out: Activity. In kind it is functional.
The subject of another assay is A549. Description: Cytotoxicity against human A549 cells assessed as cell growth at 10 uM after 48 hrs by SRB assay relative to control. In kind it is functional. Particulars: A549, 48 h, read-out: Activity.
For the next assay, the system named is 786-0. Description: Cytotoxicity against human 786-O cells assessed as cell growth at 10 uM after 48 hrs by SRB assay relative to control. In kind it is functional. The conditions noted are these: 786-0, 48 h, read-out: Activity.
A further assay relates to HCT-15. The experiment in a line: Cytotoxicity against human HCT15 cells assessed as cell growth at 10 uM after 48 hrs by SRB assay relative to control. In kind it is functional. The conditions noted are these: HCT-15, 48 h, read-out: Activity.
The subject of a further assay is Hs-578T. Description: Cytotoxicity against human Hs 578T cells assessed as cell growth at 10 uM after 48 hrs by SRB assay relative to control. Type of assay: functional. Particulars: read-out: Activity.
Assay [4] addresses CDK2/Cyclin A2 (Homo sapiens) (UniProt P24941+P20248). Description: Inhibition of full length human CDK2/cyclin A assessed as residual activity at 10 uM using histone H1 as substrate in presence of [gamma-33P]ATP. Type of assay: protein-complex assay.
The next assay relates to RXF 393. The experiment in a line: Cytotoxicity against human RXF393 cells assessed as cell growth at 10 uM after 48 hrs by SRB assay relative to control. Type of assay: functional. Particulars: RXF 393, 48 h, read-out: Activity.
In assay [5] the test system is SN12C. Description: Cytotoxicity against human SN12C cells assessed as cell growth at 100 uM after 48 hrs by SRB assay relative to control. Type of assay: functional. The conditions noted are these: read-out: Activity.
For a further assay, the system named is U-251. The experiment in a line: Cytotoxicity against human U251 cells assessed as cell growth at 10 uM after 48 hrs by SRB assay relative to control. In kind it is functional. The conditions noted are these: U-251, 48 h, read-out: Activity.
Assay [6] addresses Glycogen synthase kinase-3 (Sus scrofa, UniProt B2LUN4+I6LNT8). The experiment in a line: Inhibition of domestic porcine brain full length GSK-3alpha/beta using GS-1 as substrate in presence of [gamma-33P]ATP. Set-up: species or system Sus scrofa domesticus.
The test system of the next assay is OVCAR-5. The experiment in a line: Cytotoxicity against human OVCAR5 cells assessed as cell growth at 10 uM after 48 hrs by SRB assay relative to control. In kind it is functional. The conditions noted are these: OVCAR-5, 48 h, read-out: Activity.
In assay [7] the test system is SN12C. Description: Cytotoxicity against human SN12C cells assessed as cell growth at 10 uM after 48 hrs by SRB assay relative to control. In kind it is functional. Particulars: read-out: Activity.
In another assay the test system is SK-MEL-5. Description: Cytotoxicity against human SK-MEL-5 cells assessed as cell growth at 10 uM after 48 hrs by SRB assay relative to control. The conditions noted are these: SK-MEL-5, 48 h, read-out: Activity. In kind it is functional.
The subject of another assay is UACC-257. Description: Cytotoxicity against human UACC257 cells assessed as cell growth at 10 uM after 48 hrs by SRB assay relative to control. Type of assay: functional. Particulars: UACC-257, 48 h, read-out: Activity.
A further assay has as its system UACC-62. The experiment in a line: Cytotoxicity against human UACC62 cells assessed as cell growth at 0.1 uM after 48 hrs by SRB assay relative to control. Particulars: UACC-62, 48 h, read-out: Activity. In kind it is functional.
Assay [8] addresses Receptor-interacting serine/threonine-protein kinase 3 (Homo sapiens, UniProt Q9Y572). The experiment in a line: Inhibition of recombinant full length human RIPK3 expressed in baculovirus infected Sf9 insect cells using MBP as substrate in presence of [gamma-33P]ATP.
In assay [9] the target is Cyclin-dependent kinase 5/CDK5 activator 1 (Homo sapiens, UniProt Q00535). Description: Inhibition of recombinant full length human CDK5/p25 expressed in bacteria using histone H1 as substrate in presence of [gamma-33P]ATP.
Cyclin-dependent kinase 5/CDK5 activator 1, sequence (Q00535 whole entry): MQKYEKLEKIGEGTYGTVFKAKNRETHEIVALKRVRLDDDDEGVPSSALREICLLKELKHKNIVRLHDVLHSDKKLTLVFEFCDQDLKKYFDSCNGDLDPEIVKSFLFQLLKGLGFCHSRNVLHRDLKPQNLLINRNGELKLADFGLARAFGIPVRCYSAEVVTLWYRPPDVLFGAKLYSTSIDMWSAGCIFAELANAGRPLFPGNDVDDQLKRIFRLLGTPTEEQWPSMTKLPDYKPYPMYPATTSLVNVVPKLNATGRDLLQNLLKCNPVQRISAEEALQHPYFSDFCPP
Cyclin-dependent kinase 5/CDK5 activator 1, sequence (Q15078 whole entry, further chain): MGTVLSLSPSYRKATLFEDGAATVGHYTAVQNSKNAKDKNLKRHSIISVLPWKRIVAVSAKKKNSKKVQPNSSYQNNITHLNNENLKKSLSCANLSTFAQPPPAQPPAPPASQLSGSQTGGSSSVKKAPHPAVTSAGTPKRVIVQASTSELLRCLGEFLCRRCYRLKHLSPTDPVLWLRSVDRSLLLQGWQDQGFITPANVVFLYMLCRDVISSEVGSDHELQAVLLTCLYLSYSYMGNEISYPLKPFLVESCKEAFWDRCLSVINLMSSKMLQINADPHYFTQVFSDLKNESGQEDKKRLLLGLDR
The target of assay [10] is CDK9/cyclin T1 (Homo sapiens) (UniProt O60563+P50750). Description: Inhibition of recombinant full length human CDK9/cyclin T expressed in baculovirus infected Sf9 insect cells assessed as residual activity at 10 uM using YSPTSPSYSPTSPSYSPTSPSKKKK as substrate in presence of [gamma-33P]ATP.
The test system of the next assay is EKVX. Description: Cytotoxicity against human EKVX cells assessed as cell growth at 10 uM after 48 hrs by SRB assay relative to control. Type of assay: functional. The conditions noted are these: read-out: Activity.

Each structure is given as a SMILES string. Some results are limits rather than exact numbers.

Receptor-interacting serine/threonine-protein kinase 3, sequence (Q9Y572 whole entry): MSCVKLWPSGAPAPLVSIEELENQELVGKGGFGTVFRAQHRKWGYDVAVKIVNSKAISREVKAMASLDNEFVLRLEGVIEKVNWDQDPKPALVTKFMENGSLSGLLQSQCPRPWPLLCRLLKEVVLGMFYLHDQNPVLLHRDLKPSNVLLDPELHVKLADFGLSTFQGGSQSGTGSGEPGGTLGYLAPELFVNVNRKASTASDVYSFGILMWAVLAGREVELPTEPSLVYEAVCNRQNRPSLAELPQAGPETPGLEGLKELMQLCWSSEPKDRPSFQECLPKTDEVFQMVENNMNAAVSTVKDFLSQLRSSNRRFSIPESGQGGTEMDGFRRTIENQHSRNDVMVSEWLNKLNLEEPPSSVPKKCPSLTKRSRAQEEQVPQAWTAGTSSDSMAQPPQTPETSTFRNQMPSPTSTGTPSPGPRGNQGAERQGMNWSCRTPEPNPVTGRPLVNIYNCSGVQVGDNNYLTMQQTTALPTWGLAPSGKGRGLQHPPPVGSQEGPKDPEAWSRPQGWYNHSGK

In the case of `N#CCCCCCn1cc(C2=C(c3cn(CCCCCC#N)c4ccccc34)C(=O)N(O)C2=O)c2ccccc21`, the IC50 was over 10 µM in assay [1]; over 10 µM in assay [2]; 0.75 µM in [6]; over 10 µM in assay [8]; over 10 µM in assay [9]. The growth at 10 µM is 59 to 99.6% in the assay on HCC 2998; 35 to 83.3% in the assay on SK-MEL-28; 39.1% in the assay with RPMI-8226; 51 to 73.6% with A549; 51 to 78.7% with 786-0; 21 to 70.8% with HCT-15. Also, the growth at 10 µM in the assay on Hs-578T lay within 25 to 80%; in the assay with RXF 393, 2 to 73.2%; in the assay with U-251 it was 25 to 82.2%; in the assay with OVCAR-5, 95 to 106%; in the assay on SN12C [7], 47 to 88.2%; with SK-MEL-5, 2 to 39.4%. Further, in the assay with UACC-257, the growth at 10 µM was in the range of 56 to 82.1%. Moreover, the Activity was found to be 38% in assay [3], 78% in assay [4] and 55% in assay [10]. Besides, in the assay with SN12C [5], the growth at 100 µM came out at 5%. Moreover, in the assay on UACC-62, the growth at 0.1 µM was 94%.
Take `N#CCCCCCn1cc(C2=C(c3cn(CCCCCC#N)c4ccccc34)C(=O)NC2=O)c2ccccc21`: the IC50 in [1] was over 10 µM; in assay [2], over 10 µM; in [6], 0.12 µM; in assay [8] it was over 10 µM; in assay [9], over 10 µM. Moreover, the growth at 10 µM was 107% in the assay on HCC 2998; 133% with SK-MEL-28; 86.8% in the assay with RPMI-8226; 85.6% with A549; 69.4% in the assay on HCT-15; 59.7% in the assay with Hs-578T. Further, the growth at 10 µM in the assay on EKVX was determined as 86.5%; in the assay on RXF 393 it was 62.1%; in the assay with U-251, 83.8%; in the assay with OVCAR-5 it was 128%; with SN12C [7] it was 87.7%; with SK-MEL-5, 78.7%. Moreover, in the assay on UACC-257, the growth at 10 µM was found to be 136%. Also, the Activity was found to be 9% in [3], 36% in assay [4] and 9% in [10].
As to `O=C1C2=C(C(=O)N1O)c1cn(c3ccccc13)CCCCCCn1cc2c2ccccc21`, the IC50 in [1], in assay [2], in [6], in [8] and in assay [9] was over 10 µM each time. For the same compound, the growth at 10 µM was determined as 110% in the assay with HCC 2998; 108% with SK-MEL-28; 92.9% in the assay on RPMI-8226; 108% in the assay with A549; 108% in the assay on HCT-15; 97.2% in the assay on Hs-578T. Further, the growth at 10 µM worked out at 103% in the assay with EKVX; 119% in the assay with RXF 393; 106% in the assay with U-251; 98.2% in the assay on OVCAR-5; 106% with SN12C [7]; 99.6% with SK-MEL-5. For the same compound, the growth at 10 µM with UACC-257 turned out to be 106%. The Activity in [3] was 107%; in assay [4], 89%; in assay [10] it was 87%.
Take `Cn1cc(C2=C(c3cn(CCCCCC#N)c4ccccc34)C(=O)N(O)C2=O)c2ccccc21`: the IC50 was over 10 µM in assay [1]; over 10 µM in assay [2]; 0.27 µM in [6]; over 10 µM in assay [8]; over 10 µM in assay [9]. Further, the growth at 10 µM was 111% in the assay with HCC 2998; 109% in the assay with SK-MEL-28; 71.2% in the assay with RPMI-8226; 95.8% in the assay on A549; 83.7% in the assay with 786-0; 91.2% in the assay on HCT-15. Also, the growth at 10 µM in the assay with Hs-578T came out at 93.5%; with RXF 393, 90%; in the assay on U-251 it was 102%; in the assay on OVCAR-5, 117%; in the assay on SN12C [7], 102%; in the assay on SK-MEL-5, 78.8%. In the assay on UACC-257, the growth at 10 µM worked out at 110%. For the same compound, the Activity in assay [3] worked out at 24%; in assay [4], 64%; in [10], 17%.
